The record followed here is patent publication US4064128A, “N,[3-(4'-fluorobenzoyl)propyl]-N2 -(2'-chloro-5'-methylphenoxy)ethyl]p i” (Kali-Chemie Aktiengesellschaft, priority 1971, dated 1977).

Entries after “also recorded” stand apart in the source; their conditions may differ.

One may read the LD50 as the dose at which mortality reaches 50%. High values mean lower toxicity, low ones greater toxicity. A word on the ED50: it is the midpoint of the dose-response relation.

Series [1] deals with hexobarbital sleep duration. Kind of series: Sleep prolongation test (hexobarbital). It is filed as in vivo, female mice. The following applies: for ED (4-fold prolongation): Mus musculus, po, dose p.o. 30 min before 65 mg/kg i.v. hexobarbital, mice, read-out: Fourfold prolongation of hexobarbital sleep duration; for sedative effect (in words), sleep prolongation and aggression test: prolongation of hexobarbital sleep duration and aggression test. The method, then:
Test 2. Sleep prolongation test
In this test a dose of the test compound is first administered perorally to female mice. After an interval of 30 minutes a dose of 65 milligrams of hexobarbital per kilogram of body weight of the animal is administered intravenously to the mice. The length of the period after administration of the hexabarbital during which the mouse remains sleeping on its side before turning over onto its abdomen, is then noted.

Series [2] is described as follows: Acute oral toxicity (LD50 p.o.). It is filed as in vivo. The following applies: for LD50 at 168 h: mouse, in vivo, po, mice, single dose, 7 days survival period; for toxicity (in words): compared with the other tested compounds. The method, then:
Test 1. Acute oral toxicity
The acute oral toxicity (LD50 p.o.) was determined by peroral administration of a single dose of the compound to fasting white male mice.
The lethal dose in terms of milligrams of the compound per kilogram of body weight of the tested animals was computed in accordance with the method described by J. P. Litchfeld and F. Wilcoxon in Journal of Pharmacology and Experimental Therapeutics, vol. 96, page 99 (1949).
The doses that are referred to herein were all computed in accordance with the said method. The results in this test were based upon a survival period of 7 days.

Series [3] relates to aggression induced by clonidine. Kind of series: Inhibition of aggression induced by clonidine (Morpurgo). It counts as in vivo. The following applies: Mus musculus, ip, 30 min before 46.4 mg/kg i.p. clonidine, mice; read-out: Aggression test (Morpurgo), ED50. The protocol:
Test 3. Inhibition of aggression induced by clonidine
This test was described by C. Morpurgo in European Journal of Pharmacology,vol. […] In this test 12 mice are separated into pairs and each mouse is injected intraperitoneally with a dose of the test compound. […] Clonidine at this dosage level produces an aggressive behaviour in the mice which expresses itself in violent bouts of fighting and biting. The mice are observed and their behaviour scored in accordance with a point system. The mice are observed during a period of 30 minutes and each pair of mice scores 2 points if, during any 10 minute interval, two or more encounters or bouts had occurred. Six pairs of mice accordingly cannot score more than a total of 36 points during the 30 minute period, which is rated 100%.

Another series concerns phenyl quinone writhing. The series is described as follows: Analgesic effect, Writhing test (phenyl quinone). It counts as in vivo, male albino mice (NMRI strain). The following applies: for ED (effect equal to amidopyrine 100 mg/kg): Mus musculus, oral dose equivalent to 100 mg/kg oral amidopyrine, phenyl quinone 1.5 mg/kg, read-out: Writhing-test (dose producing same effect as amidopyrine). The method, then:
The analygesic effect of the substance was determined by the Writhing test. The substances to be tested were administered to male albino mice (NMRI strain) in accordance with the method described by E. Sigmund, R. Cadmus and G. Lu in Proc. Soc. exp. […] After 30 minutes, 1.5 mg. of phenyl quinone per kg. of body weight were administered to the test animals through the abdominal cavity. Amidopyrine was orally administered as comparison substance in a dose of 100 mg/kg. The figures set out in Table 2 indicate the oral doses of the compounds according to the invention in mg/kg which produce the same effect as the dose of the comparison substance.

A further series has as its system ileum portion. Kind of series: Antihistamine action, Magnus procedure. Details: species or system Pirbright guinea pigs. The following applies: Cavia porcellus, guinea pig ileum, read-out: Antihistamine action ED50. The source says: Test 5. Antihistamine action
The ED50 has been given in mol/1.

The mark [4] stands for this setting: listed as compound of the invention.

As for `COc1ccc(CN2CCN(CCCC(=O)c3ccc(F)cc3)CC2)cc1` [methoxyphenyl, no O-bridge, reference compound], the ED (4-fold prolongation) in series [1] is 33.9 mg/kg. In series [2], the LD50 at 168 h stood at 431 mg/kg. Besides, the ED50 in series [3] was 4.7 mg/kg. Also, the ED (effect equal to amidopyrine 100 mg/kg) in the series on phenyl quinone writhing was found to be 62 mg/kg. Also, the IC50 with ileum portion was 150 nM.

In the case of `Cc1cc(Cl)ccc1OCCN1CCN(CCCC(=O)c2ccc(F)cc2)CC1` [4-chloro-2-methylphenyl], the ED (4-fold prolongation) in series [1] was 100 mg/kg. In series [2], this compound yielded an LD50 at 168 h of 1000 mg/kg. The ED50 in series [3] is 2.5 mg/kg. In addition, in the series on phenyl quinone writhing, the ED (effect equal to amidopyrine 100 mg/kg) was found to be 68.1 mg/kg. Also, the IC50 with ileum portion was 17 nM.

Take `O=C(CCCN1CCN(CCOc2c(Cl)cccc2Cl)CC1)c1ccc(F)cc1` [2,6-dichlorophenyl, reference compound]: the ED (4-fold prolongation) in series [1] stood at 117 mg/kg. The same compound returned an LD50 at 168 h in series [2] of 1020 mg/kg. In addition, in series [3], the ED50 stood at 7.4 mg/kg.

With `O=C(CCCN1CCN(CCOc2ccc([N+](=O)[O-])cc2)CC1)c1ccc(F)cc1` [4-nitrophenyl], the ED (4-fold prolongation) in series [1] worked out at 8 mg/kg. This compound returned an LD50 at 168 h in series [2] of 215 mg/kg. The ED50 in series [3] is 0.7 mg/kg. The ED (effect equal to amidopyrine 100 mg/kg) in the series on phenyl quinone writhing was found to be 1.8 mg/kg. In addition, the IC50 in the series with ileum portion stood at 4 nM.

`Cc1cc(C)cc(OCCN2CCN(CCCC(=O)c3ccc(F)cc3)CC2)c1` [3,5-dimethylphenyl]: in series [1], the ED (4-fold prolongation) stood at 68 mg/kg; the “sedative effect (in words), sleep prolongation and aggression test” value (shortened to “sedative effect (in words)”) is reported as “less satisfactory sedative effect”. In series [2], the “toxicity (in words)” value is “even a higher toxicity” and the LD50 at 168 h was 297 mg/kg. In addition, the ED (effect equal to amidopyrine 100 mg/kg) in the series with phenyl quinone writhing was found to be 6.9 mg/kg.

With `Cc1cccc(OCCN2CCN(CCCC(=O)c3ccc(F)cc3)CC2)c1C` [2,3-dimethylphenyl], the ED (4-fold prolongation) in series [1] was found to be 120 mg/kg. This compound also showed an LD50 at 168 h in series [2] of 1040 mg/kg. In addition, the ED50 in series [3] amounted to 4.6 mg/kg. Further, the ED (effect equal to amidopyrine 100 mg/kg) with phenyl quinone writhing turned out to be 23 mg/kg.

As to `Cc1ccc(C)c(OCCN2CCN(CCCC(=O)c3ccc(F)cc3)CC2)c1` [2,5-dimethylphenyl], in series [1], the ED (4-fold prolongation) amounted to 100 mg/kg. This compound showed an LD50 at 168 h in series [2] of 1240 mg/kg. Also, the ED (effect equal to amidopyrine 100 mg/kg) in the series on phenyl quinone writhing was found to be 17 mg/kg.

As to `O=C(CCCN1CCN(Cc2ccc(F)cc2)CC1)c1ccc(F)cc1` [fluorobenzyl, no O-bridge, reference compound], the ED (4-fold prolongation) in series [1] turned out to be 18.5 mg/kg. In series [2], this compound returned an LD50 at 168 h of 431 mg/kg. Moreover, the ED50 in series [3] came out at 7.6 mg/kg. Moreover, the ED (effect equal to amidopyrine 100 mg/kg) in the series on phenyl quinone writhing worked out at 49.5 mg/kg. Moreover, the IC50 in the series on ileum portion was found to be 120 nM.

Turning to `Cc1ccc(Cl)c(OCCN2CCN(CCCC(=O)c3ccc(F)cc3)CC2)c1` [2-chloro-5-methylphenyl], in series [1], the ED (4-fold prolongation) is 7 mg/kg; the “sedative effect (in words)” value is “substantially better results in regard to sedative effects”. In series [1] (setting [4]), the “sedative effect (in words)” value was “the same or better than that of the 4-nitrophenyl compound”. In series [2] (setting [4]), the “toxicity (in words)” value is on record as “very substantially lower than that of 4-nitrophenyl; also recorded: low toxicity”. In addition, in series [2], the LD50 at 168 h was 464 mg/kg. The ED50 in series [3] was determined as 0.35 mg/kg. In the series with phenyl quinone writhing, the ED (effect equal to amidopyrine 100 mg/kg) was found to be 6 mg/kg. In the series on phenyl quinone writhing (Writhing test), the “analgesic effect (in words)” value is “good analgesic effects”. For the same compound, the IC50 with ileum portion is 7 nM.

With `O=C(CCCN1CCN(CCOc2ccc(Cl)cc2)CC1)c1ccc(F)cc1` [4-chlorophenyl, reference compound], the ED (4-fold prolongation) in series [1] was 21.5 mg/kg. In series [2], the LD50 at 168 h worked out at 336 mg/kg. Besides, in series [3], the ED50 was determined as 6 mg/kg. Besides, the ED (effect equal to amidopyrine 100 mg/kg) with phenyl quinone writhing was 5.5 mg/kg. Besides, the IC50 with ileum portion is 9 nM.
